Measured values: US12673915B2, “Precursor compound of hexahydro-beta-acid component compound, feed composition and use thereof” (WISORIG TECHNOLOGIES PTE. LIMITED, priority 2020, dated 2026)

How the values were obtained:
[1] = Thermal stability testing at 60° C. of ingredient and 1% premix (HPLC); type: physicochemical
Description: (§1) Preparation of a sample of 1% premix of an ingredient: 1 g of an ingredient was respectively weighed out and evenly mixed with 99 g of corncob meal in a mixer to give a sample of 1% premix of an ingredient for testing.
Thermal stability testing at 60° C.: The samples of an ingredient and 1% premix thereof were respectively spread in petri dishes to form thin layers of <5 mm, and kept at 60° C. Two replications for a sample were taken in parallel on day 5 and day 10 for HPLC analysis.
(§2) 25.0 mg of an ingredient was accurately weighed out and dissolved in an appropriate amount of methanol by ultrasonication. The solution was then transferred to a volumetric flask and diluted to 25 mL with methanol to give a stock solution. The samples from the stock solution were diluted with methanol respectively to a concentration of 100 ppm, 500 ppm, and 1000 ppm of work solution, and then the working solutions were filtered by 0.22 μm organic membranes. Between the concentration of a sample and the response value of HPLC peak area thereof, the linearity was adjusted and detected to give a standard curve.
(§3) 2.3: Preparation of Sample Solution 25.0 mg of an ingredient and 2.0000 g of a sample of 1% premix thereof were respectively accurately weighed out, and dissolved in 25 mL of methanol by ultrasonication for 10 minutes. The resulting solutions were filtered by organic membranes and then analyzed by HPLC. 2.4: Testing Conditions for HPLC • Column: Symmetry Cis column (Waters; 250 mm*4.6 mm, 5 μm). • Mobile phase: 0.02% phosphoric acid:methanol=5:95 (v:v). • Wavelength: 235 nm. • Temperature of the Column: 25° C. • Injection volume: 10 μL. • Flow rate: 1 mL/min. 3: Results

[2] = Photostability testing under illumination of 4500 Lx of ingredient and 1% premix (HPLC); type: physicochemical; settings: 4500 Lx
Excerpt: as §1
Photostability testing: The samples of an ingredient and 1% premix thereof were respectively spread in petri dishes to form thin layers of <5 mm, and kept under an illumination of 4500 Lx. Three replications for a sample were sampled in parallel on day 5 and day 10 for HPLC analysis.
as §2, §3

[3] = Long-term stability in feeds at room temperature (25° C.±2° C., RH 60%±10%; HPLC); type: physicochemical
Excerpt: Feeds: ZUSF's premixed feed (A mixture of crushed Feed A and crushed Feed B at a weight ratio of 2:1, wherein Feed A was a 5.33% multi-premixed feed for piglets from ZUSF's Hao-Ru-Zhen-Jing, and B was a 2.67% multi-premixed feed for piglets from ZUSF's Hao-Ru-Zhen-Jing); creep feed for piglets from CP FEED; INSIGHTER's feed for broiler; 4% premixed feed from GUANGDONG CO-POWER.
Preparation of a sample of 1% premix of Ingredient: 1 g of an ingredient was respectively weighed out and evenly mixed with 99 g of corncob meal in a mixer to give a sample of 1% premix of an ingredient.
Preparation of a sample of 500 ppm feed of an ingredient: The sample of 1% premix of an ingredient was diluted step by step using the ZUSF's remixed feed to 5000 ppm and 500 ppm to give the sample of 500 ppm feed of an ingredient for later testing.
Preparation of a sample of 100 ppm feed of an ingredient: sample of 1% premix of an ingredient was diluted step by step using the creep feed for piglets from CP FEED to 1000 ppm and then 100 ppm to give the sample of 100 ppm feed of an ingredient for later testing.
Preparation of a sample of 100 ppm feed of an ingredient: The sample of 1% premix of an ingredient was diluted step by step using the INSIGHTER's feed for broiler to 1000 ppm and 100 ppm to give the sample of 100 ppm feed of an ingredient for later testing.
Preparation of a sample of 2000 ppm feed of an ingredient: The sample of 1% premix of an ingredient was diluted step by step using the 4% premixed feed from GUANGDONG CO-POWER to 5000 ppm and 2000 ppm to give the sample of 2000 ppm feed of an ingredient for later testing.
Method: Three replications of each feed sample were tested at the condition of 25° C.±2° C. and RH 60%±10%, wherein the replications of each feed sample were sampled in parallel for HPLC analysis on day 5, day 10, day 15, day 30, day 60, and day 90.
25.0 mg of an ingredient was accurately weighed out and dissolved in an appropriate amount of methanol or n-hexane by ultrasonication. The solution was then transferred to a volumetric flask and diluted to 50 mL to give a 500 ppm (by wt.) stock solution. The samples from the stock solution were diluted with methanol or n-hexane respectively to a concentration of 10 ppm, 25 ppm, 50 ppm, 100 ppm, and 250 ppm of work solution, and then the working solutions were filtered by 0.22 μm organic membranes. Between the concentration of a sample and the response value of HPLC peak area thereof, the linearity was adjusted and detected to give a standard curve.
5.0000 g of the samples sampled at different time intervals were respectively accurately weighed out, and dissolved in 25 mL of methanol or n-hexane by ultrasonication for 10 minutes. The resulting solutions were filtered by organic membranes and then analyzed by HPLC.
• Equipment: Waters e2695 with PDA detector. • Mobile phase: 0.02% phosphoric acid:methanol=5:95 (v:v). • Column: Symmetry Cis column (Waters; 250 mm×4.6 mm, 5 μm). • Wavelength: 235 nm. • Temperature of the Column: 25° C. • Injection volume: 10 μL. • Flow rate: 1 mL/min. Normal Phase Chromatography: • Equipment: Shimadzu LC-14C/SPD-15C. • Column: SuperSil NH2 column ([…]; 250 mm×4.6 mm). • Mobile phase: n-hexane:isopropanol=60:40 (v:v). • Wavelength: 235 nm. • Temperature of the Column: 25° C. • Injection volume: 20 μL. • Flow rate: 1 mL/min. 3: Results

[4] = system: Duroc×Landrace×Yorkshire cross-bred bacon-type piglets; assay: Effect on the production performance of hogs (14-day feeding trial); type: in vivo; settings: 25 ppm in feed
Excerpt: 480 67-day-old Duroc×Landrace×Yorkshire cross-bred bacon-type piglets with similar body weight, were randomly divided into 16 groups, with 3 replications per group, 10 piglets per replication and equal amounts of males and females. The pig pen and tools were sterilized before the trial. In the trial, the piglets were kept in separate regions in the same pig pen under the same feeding and management conditions, were given a free hand with the feed and the water, and were fed twice a day. The groups were known as control group (group 1) and test groups 2 to 16. The piglets of the control group were fed with basal formula feed only, while those of the test groups 2 to 16 were respectively fed with basal formula feed mixed with different additives, wherein the active ingredient of the additives was a hexahydro-β-acid compound or a prodrug of a hexahydro-β-acid compound provide herein, and the content thereof in the feed was 5 or 25 ppm as shown in Table 4.
The trial lasted for 14 days. During the trial, each test group was not fed with other antioxidants or growth enhancers. On the 14th day, each test group was fed with no feed but water for 12 hours, and the piglets of each replication as one unit were weighed to calculate the average daily feed intake (ADFI, g/d per piglet), the average daily weight gain (ADG, g/d per piglet), and the feed conversion ratio (FCR). Average daily feed intake=(Total weight of provided feed−Weight of residual feed)/(Days of the trial×Number of piglets in each replicate) Average daily weight gain=(final average body weight−initial average body weight)/Days of the trial Feed conversion ratio=average daily feed intake/average daily weight gain

[5] = 1% Premix of an ingredient (corncob meal), Day 5
[6] = 1% Premix of an ingredient (corncob meal), Day 10
[7] = 100 ppm in INSIGHTER's broiler feed, Day 5
[8] = 100 ppm in INSIGHTER's broiler feed, Day 15
[9] = 100 ppm in INSIGHTER's broiler feed, Day 30
[10] = 100 ppm in INSIGHTER's broiler feed, Day 60
[11] = 100 ppm in creep feed for piglets from CP FEED, Day 5
[12] = 100 ppm in creep feed for piglets from CP FEED, Day 15
[13] = 100 ppm in creep feed for piglets from CP FEED, Day 30
[14] = 100 ppm in creep feed for piglets from CP FEED, Day 60
[15] = 100 ppm in creep feed for piglets from CP FEED, Day 90
[16] = 500 ppm in ZUSF's premixed feed, Day 15
[17] = 500 ppm in ZUSF's premixed feed, Day 30
[18] = 500 ppm in ZUSF's premixed feed, Day 60
[19] = 500 ppm in ZUSF's premixed feed, Day 90

Residual amount of active ingredient [3, 7] [%] | Residual amount of active ingredient [3, 8] [%] | Residual amount of active ingredient [3, 9] [%] | Residual amount of active ingredient [3, 10] [%] | Residual amount of active ingredient [3, 11] [%] | Residual amount of active ingredient [3, 12] [%] | Residual amount of active ingredient [3, 13] [%] | Residual amount of active ingredient [3, 14] [%] | Residual amount of active ingredient [3, 15] [%] | Residual amount of active ingredient [3, 16] [%] | Residual amount of active ingredient [3, 17] [%] | Residual amount of active ingredient [3, 18] [%] | Residual amount of active ingredient [3, 19] [%] | Molecule | other results
99.45 | 99.37 | 99.19 | 99.72 | 100.54 | 100.97 | 97.62 | 98.08 | 96.99 | 96.77 | 94.17 | 95.88 | 95.73 | CCC(=O)OC1=C(CCC(C)C)C(=O)C(CCC(C)C)(CCC(C)C)C(O)=C1C(=O)C(C)C [hexahydro-colupulone mono-propionate] | Residual amount of active ingredient [1, 5]: 98.27%; Residual amount of active ingredient [1, 6]: 97.91%; Residual amount of active ingredient ([1]; Ingredient, Day 5): 99.40%; Residual amount of active ingredient ([1]; Ingredient, Day 10): 99.26%; Residual amount of active ingredient [2, 5]: 98.87%; Residual amount of active ingredient [2, 6]: 98.10%; Residual amount of active ingredient ([2]; Ingredient, Day 5): 98.90%; Residual amount of active ingredient ([2]; Ingredient, Day 10): 98.70%; Residual amount of active ingredient ([3]; 500 ppm in ZUSF's premixed feed, Day 5): 98.36%; Residual amount of active ingredient ([3]; 2000 ppm in 4% premixed feed from GUANGDONG CO-POWER, Day 5): 97.48%; Residual amount of active ingredient ([3]; 2000 ppm in 4% premixed feed from GUANGDONG CO-POWER, Day 15): 96.12%; Residual amount of active ingredient ([3]; 2000 ppm in 4% premixed feed from GUANGDONG CO-POWER, Day 30): 96.28%; Residual amount of active ingredient ([3]; 2000 ppm in 4% premixed feed from GUANGDONG CO-POWER, Day 60): 95.87%; Residual amount of active ingredient ([3]; 2000 ppm in 4% premixed feed from GUANGDONG CO-POWER, Day 90): 95.90%
98.90 | 97.72 | 96.58 | 95.77 | 102.18 | 96.14 | 95.30 | 95.20 | 95.55 | 87.50 | 89.00 | 86.07 | 83.77 | hexahydro-colupulone mono-hexanoate | stability / content in feeds at room temperature (in words) ([3]; during the testing period): relatively poor in some of the feeds; effects on the performance of piglets compared with mono-acetate and mono-butyrate (in words) [4]: not as significant; ADFI (average daily feed intake) ([4]; 14 days, piglets): 913 g/d per piglet; ADG (average daily weight gain) ([4]; 14 days, piglets): 383 g/d per piglet; FCR (feed conversion ratio) ([4]; 14 days, piglets): 2.386
